Assay results: patent publication US12590131B2, “Antimicrobial peptides with alpha-core helices” (priority 2017, dated 2026)

System: panel of prototypic gram-positive (S. aureus), gram-negative (S. typhimurium, P. aeruginosa, A. baumannii) and fungal (C. albicans) pathogens
Experiment: Radial diffusion assay for microbicidal activity, whole pathogen panel
Type: cell-based
Details: 10 μg peptide
Method: Select candidate microbicidal peptides were commercially synthesized by BioMatik (Biomatik USA, Wilmington, Delaware). Lyophilized peptides were reconstituted with ddIH20 and stored in aliquots at −20° C. LL-37 (Peptides International, Louisville, KY), a prototypic human AHAP, was used as a comparator in microbicidal assays.
Putative antimicrobial peptides were assayed for microbicidal activity using a well-established radial diffusion method modified to pH 5.5 or 7.5. A panel of microorganisms was tested: Gram-positive Staphylococcus aureus (ISP 479C, ISP 479R); Gram-negative Salmonella typhimurium (MS 5996s, MS 14028), Pseudomonas aeruginosa (PA01), Acinetobacter baumanni (19606) and the fungus Candida albicans (36082S, 36082R). Logarithmic phase organisms were inoculated (10^6 CFU/ml) into buffered agarose, and poured into plates. Peptides (10 μg) were introduced into wells in the seeded matrix, and incubated for 3 h at 37° C. Nutrient overlay medium was applied, and assays incubated at 37° C. or 30° C. for bacteria or fungi, respectively. After 24h, zones of inhibition were measured. Independent experiments were repeated a minimum of two times.

## bIFN-γ (KAISELYNVITELSKSNSKMRKRRQNLFRGWKASK)
  relative potency at pH 7.5 versus pH 5.5: somewhat more potent at pH 7.5 than 5.5
pH 7.5 and pH 5.5, FIG. 9
  microbicidal activity (zones of inhibition): significant activity against most organisms

## hIFN-γ (AIHELIQVMAELSPAAKTGKRKRSQMLFRGRRASQ)
  relative potency at pH 7.5 versus pH 5.5: somewhat more potent at pH 7.5 than 5.5
pH 7.5 and pH 5.5, FIG. 9
  microbicidal activity (zones of inhibition): significant activity against most organisms

## hIL7 (LCFLKRLLQEIKTCWNKILMGTKEH)
pH 5.5
  microbicidal activity (zones of inhibition): retained significant activity
pH 7.5
  microbicidal activity (zones of inhibition): somewhat less potent

## hIL-13 (EVAQFVKDLLLHLKKLFREGRFN)
pH 5.5
  microbicidal activity (zones of inhibition): retained significant activity
pH 7.5
  microbicidal activity (zones of inhibition): somewhat less potent

## hIL-21 (KEFLERFKSLLQKMIHQHLSSRTHGSEDS)
pH 5.5
  microbicidal activity (zones of inhibition): retained significant activity
pH 7.5
  microbicidal activity (zones of inhibition): somewhat less potent

## tIL-5 (KRFIEKLRTFLRKLSRGAK)
pH 7.5 and pH 5.5, FIG. 9
  microbicidal activity (zones of inhibition): markedly potent against all organisms
